This is an account of results in patent US6197335A, “Solid pharmaceutical compositions comprising a cyclosporin and an anionic surfactant” (Sherman; Bernard Charles, priority 1997, dated 2001).

The series in a line: critical micelle concentration of the surfactant in water. Format: physicochemical. The source says:
The ability of anionic surfactants to solubilize cyclosporins in water substantially increases when the concentration of the surfactant in water substantially exceeds the critical micelle concentration. Using sodium lauryl sulfate, for example, the critical micelle concentration is about 0.1% by weight.

As for `CCCCCCCCCCCCOS(=O)(=O)[O-].[Na+]` [sodium lauryl sulfate], the critical micelle concentration result is listed as “about 0.1 % by weight”.
